Where two headings read alike, the source gives them in different places. Values belong to the molecule of their own block, whether it stands above or below them. Where a SMILES comes first, the peptide text is derived from it. Bridges are numbered along the chain shown (N, C = ends). Triazole bridges read from a SMILES are 1,4-linked. Side-chain parts run from the residue outwards. [ ]: non-standard residue; d: D form. The star is where a group is joined. X1 = NC(=O)CN1CCN(CC(=O)O)CCN(CC(=O)*)CCN(CC(=O)O)CC1; Lys(N3) = [N-]=[N+]=NCCCC[C@H](N)C(=O)O; Nle = CCCC[C@H](N)C(=O)O; Pra = C#CC[C@H](N)C(=O)O; AEEA = NCCOCCOCC(=O)O
Columns and labels:
[1] = In vivo biodistribution of [^203Pb]VMT01 in B16-F10 melanoma xenograft model; set-up: species or system athymic nude mice; details: athymic nude, mouse, intravenous, 74 KBq, total radioactivity, tail vein; for tissue uptake at 0.5 h: 0.5 h post-injection; for tissue uptake at 1.5 h: 1.5 h post-injection; for tissue uptake at 3 h: 3 h post-injection; for tissue uptake at 6 h: 6 h post-injection; for tissue uptake at 24 h: 24 h post-injection
Procedure: Radiolabeling of VMT01 was carried out according to published methods. Briefly, ^203Pb^2+ was purified on 50 mg Pb-resin (Eichrom Technologies, Lisle, IL, USA) and eluted into reaction vessel using 0.5 M sodium acetate (NaOAc) pH = 6 buffer. The reaction vessel contained 20 nmole VMT01 peptide precursor and 0.29 mL of 0.5 M sodium acetate (NaOAc) pH = 4 buffer to adjust final pH to 5.4. The reaction solution was heated under 85 °C for 30 min. After reactions, free ^203Pb was removed by StrataX C-18 SPE cartridge (Phenomenex, Torrance, CA, USA) and final products were collected in 50% EtOH in saline. Biodistribution of [^203Pb]VMT01 was determined in a B16-F10 murine melanoma xenograft model in athymic nude mice. B16-F10 xenograft was developed by the subcutaneous (SC) injection of 2 × 10^5 B16-F10 cells at the left shoulder in 100 µL 50% Matrigel in complete growth media. Then, 74 KBq of [^203Pb]VMT01 (5.4 pmole) were administered via tail vein injection (2 male and 2 female at each time point) in 100 µL of saline with less than 10% EtOH content. At 0.5, 1.5, 3, 6, and 24 h post-injection, animals were euthanized, and organs of interest were harvested and weighed. Radioactivity in tumor and organs was measured on a Cobra II automated gamma counter. […] The value for 48 h was extrapolated from the last 3 time points (3, 6, and 24 h) of the biodistribution by one phase exponential decay with least squares fitting method (GraphyPrism V7). The average kidney volume was assumed to be 0.33 cm^3 for C57BL6 mice. […] The voxel size of the model was adjusted to have the same kidney volume as the averaged value (0.33 cm^3). The elemental composition of the kidney and the mass density was assumed to be identical as the human adults’ values obtained from the International Commission on Radiation Units and measurements (ICRU) report 46 [52].

metastatic melanoma = system: metastatic melanoma; set-up: method as in PMID 31562797; details: patients with metastatic melanoma; ref [13]; cited from earlier work
[2] = both sexes, blood, read-out: Biodistribution, Blood, Average
[3] = both sexes, brain, read-out: Biodistribution, Brain, Average
[4] = both sexes, heart, read-out: Biodistribution, Heart, Average
[5] = both sexes, kidney, read-out: Biodistribution, Kidneys, Average
[6] = both sexes, liver, read-out: Biodistribution, Liver, Average
[7] = both sexes, lungs, read-out: Biodistribution, Lungs, Average
[8] = both sexes, muscle, read-out: Biodistribution, Muscle, Average
[9] = both sexes, skin, read-out: Biodistribution, Skin, Average
[10] = both sexes, spleen, read-out: Biodistribution, Spleen, Average
[11] = both sexes, tumor, read-out: Biodistribution, Tumor, Average
[12] = male, testes, read-out: Biodistribution, Testes, Average

tissue uptake at 0.5 h [1, 2]: 1.1 %ID/g | tissue uptake at 1.5 h [1, 2]: 0.08 %ID/g | tissue uptake at 3 h [1, 2]: 0.03 %ID/g | tissue uptake at 6 h [1, 2]: 0.02 %ID/g | tissue uptake at 24 h [1, 2]: 0.01 %ID/g | tissue uptake at 0.5 h [1, 3]: 0.06 %ID/g | tissue uptake at 1.5 h [1, 3]: 0.02 %ID/g | tissue uptake at 3 h [1, 3]: 0.01 %ID/g | tissue uptake at 6 h [1, 3]: 0.01 %ID/g | tissue uptake at 24 h [1, 3]: 0.01 %ID/g | tissue uptake at 0.5 h [1, 4]: 0.66 %ID/g | tissue uptake at 1.5 h [1, 4]: 0.08 %ID/g | tissue uptake at 3 h [1, 4]: 0.05 %ID/g | tissue uptake at 6 h [1, 4]: 0.03 %ID/g | tissue uptake at 24 h [1, 4]: 0.02 %ID/g | tissue uptake at 0.5 h [1, 5]: 12.8 %ID/g | tissue uptake at 1.5 h [1, 5]: 6.1 %ID/g | tissue uptake at 3 h [1, 5]: 6 %ID/g | tissue uptake at 6 h [1, 5]: 5.3 %ID/g | tissue uptake at 24 h [1, 5]: 2.6 %ID/g | tissue uptake at 0.5 h [1, 6]: 0.64 %ID/g | tissue uptake at 1.5 h [1, 6]: 0.43 %ID/g | tissue uptake at 3 h [1, 6]: 0.31 %ID/g | tissue uptake at 6 h [1, 6]: 0.37 %ID/g | tissue uptake at 24 h [1, 6]: 0.22 %ID/g | tissue uptake at 0.5 h [1, 7]: 2.8 %ID/g | tissue uptake at 1.5 h [1, 7]: 2.98 %ID/g | tissue uptake at 3 h [1, 7]: 1.34 %ID/g | tissue uptake at 6 h [1, 7]: 1 %ID/g | tissue uptake at 24 h [1, 7]: 0.2 %ID/g | tissue uptake at 0.5 h [1, 8]: 0.73 %ID/g | tissue uptake at 1.5 h [1, 8]: 0.09 %ID/g | tissue uptake at 3 h [1, 8]: 0.04 %ID/g | tissue uptake at 6 h [1, 8]: 0.03 %ID/g | tissue uptake at 24 h [1, 8]: 0.02 %ID/g | tissue uptake at 0.5 h [1, 9]: 2.23 %ID/g | tissue uptake at 1.5 h [1, 9]: 0.27 %ID/g | tissue uptake at 3 h [1, 9]: 0.15 %ID/g | tissue uptake at 6 h [1, 9]: 0.17 %ID/g | tissue uptake at 24 h [1, 9]: 0.09 %ID/g | tissue uptake at 0.5 h [1, 10]: 0.58 %ID/g | tissue uptake at 1.5 h [1, 10]: 0.17 %ID/g | tissue uptake at 3 h [1, 10]: 0.12 %ID/g | tissue uptake at 6 h [1, 10]: 0.11 %ID/g | tissue uptake at 24 h [1, 10]: 0.09 %ID/g | tissue uptake at 0.5 h [1, 11]: 5.5 %ID/g | tissue uptake at 1.5 h [1, 11]: 8.9 %ID/g | tissue uptake at 3 h [1, 11]: 4.5 %ID/g | tissue uptake at 6 h [1, 11]: 3.8 %ID/g | tissue uptake at 24 h [1, 11]: 1.7 %ID/g | tissue uptake at 0.5 h [1, 12]: 3.23 %ID/g | tissue uptake at 1.5 h [1, 12]: 0.1 %ID/g | tissue uptake at 3 h [1, 12]: 0.04 %ID/g | tissue uptake at 6 h [1, 12]: 0.04 %ID/g | tissue uptake at 24 h [1, 12]: 0.03 %ID/g
Molecule: CCCC[C@H](NC(C)=O)C(=O)N[C@H]1Cc2cn(nn2)CCCC[C@@H](C(=O)N[C@@H](CCCCNC(=O)COCCOCCNC(=O)CN2CCN(CC(=O)O)CCN(CC(N)=O)CCN(CC(=O)O)CC2)C(N)=O)NC(=O)[C@H](Cc2c[nH]c3ccccc23)NC(=O)[C@H](CCCNC(=N)N)NC(=O)[C@@H](Cc2ccccc2)NC(=O)[C@H](Cc2c[nH]cn2)NC1=O [[^203Pb]VMT01, metal not drawn] (Ac-[Nle][Pra]H[dF]RW[Lys(N3)]K([AEEA-X1])-NH2; triazole 2-7)

Molecule: ipilimumab: anti-CTLA-4
complete response rate (metastatic melanoma): 6%

Molecule: nivolumab: anti-PD1
complete response rate (metastatic melanoma): 19%
